In patent US11286268B1, “EIF4E-inhibiting compounds and methods” (EFFECTOR THERAPEUTICS, INC., priority 2019, dated 2022):
pIC50: −log10 of the molar value.

These compounds were tested against recombinant eIF4E (Homo sapiens (Human), UniProt P06730) (assay: Fluorescence polarization competition assay for eIF4E binding potency). Details: inhibition of eIF4E/EDA-m7GDP-ATTO-550 binding; calculated IC50 values, Table 4B; read-out: IC50.
Procedure, shortened: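 IC50 values reflect 50% displacement of 20 nM EDA-m7GDP-ATTO-550 from 75 nM eIF4E, measured by fluorescence polarization after 30 min at room temperature. Buffer: 20 mM Tris pH 7.5, 100 mM NaCl, 1 mM DTT, 0.02% Tween-20; 1% DMSO.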

recombinant eIF4E, sequence (P06730 whole entry): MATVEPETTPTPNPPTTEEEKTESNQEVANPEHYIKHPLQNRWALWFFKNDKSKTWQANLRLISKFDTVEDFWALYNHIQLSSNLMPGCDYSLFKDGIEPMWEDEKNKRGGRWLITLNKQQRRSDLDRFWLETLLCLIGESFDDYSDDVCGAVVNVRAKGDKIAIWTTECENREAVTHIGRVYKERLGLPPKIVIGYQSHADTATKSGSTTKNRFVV

SMILES	pIC50
Cc1nc2cc(C(F)(F)F)c(N3CCN(C)CC3=O)c(C#N)c2c(=O)n1CC#Cc1ccc(Cl)cc1-c1ccnc2c(C(=O)O)csc12 [compound 1270]	7.40
Cc1sc2c(-c3cc(Cl)ccc3C#CCn3c(C)nc4cc(C(F)(F)F)c(N5CCN(C)CC5)c(C#N)c4c3=O)ccnc2c1C(=O)O [compound 1271]	7.88
Cc1sc2c(-c3cc(Cl)ccc3OCCn3c(C)nc4cc(C(F)(F)F)c(N5CCN(C)CC5=O)c(C#N)c4c3=O)ccnc2c1C(=O)O [compound 1272]	7.55
Cc1nc(N2CCN(C)CC2)c(C#N)c2c(=O)n(CC#Cc3ccc(Cl)cc3-c3ccnc4c(C(=O)O)csc34)c(C)nc12 [compound 1273]	8.13
Cc1nc(N2CCN(CC(F)F)CC2)c(C#N)c2c(=O)n(CCOc3ccc(Cl)cc3-c3ccnc4c(C(=O)O)csc34)c(C)nc12 [compound 1274]	7.40
CCc1cc(-c2cc(Cl)ccc2OCCn2c(C)nc3cc(C(F)(F)F)c(CC4CCN(C)CC4)c(C#N)c3c2=O)c2scc(C(=O)O)c2n1 [compound 1275]	7.23
CCc1cc(-c2cc(Cl)ccc2OCCn2c(C)nc3cc(C(F)(F)F)c(CC4CCNCC4)c(C#N)c3c2=O)c2scc(C(=O)O)c2n1 [compound 1276]	7.87
Cc1nc2cc(CN3CC(F)(F)C3)c(OC(F)F)c(C#N)c2c(=O)n1CCOc1ccc(Cl)cc1-c1ccnc2c(C(=O)O)csc12 [compound 1277]	7.42
Cc1nc2cc(CN(C)CCF)c(OC(F)F)c(C#N)c2c(=O)n1CCOc1ccc(Cl)cc1-c1ccnc2c(C(=O)O)csc12 [compound 1278]	7.97
Cc1nc2cnc(C3CCC(F)(F)C3)c(C#N)c2c(=O)n1CCOc1ccc(Cl)cc1-c1ccnc2c(C(=O)O)csc12 (stereo not drawn) [compound 1279]	8.05
Cc1cc(-c2cc(Cl)ccc2OCCn2c(C)nc3ccc(N4CCC(O)C4)c(C#N)c3c2=O)c2scc(C(=O)O)c2n1 (stereo not drawn) [compound 1280]	8.37
Cc1nc2cnc(N(C)C3CCN(CC(F)F)CC3)c(C#N)c2c(=O)n1CC#Cc1ccc(Cl)cc1-c1ccnc2c(C(N)=O)csc12 [compound 1281]	6.93
Cc1sc2c(-c3cc(Cl)ccc3OCCn3c(C)nc4cnc(N5CCN(C)CC5)c(C#N)c4c3=O)ccnc2c1C(=O)O [compound 1282]	7.42
Cc1sc2c(-c3cc(Cl)ccc3OCCn3c(C)nc4cc(C(F)(F)F)c(CC5CN(C)C5)c(C#N)c4c3=O)ccnc2c1C(=O)O [compound 1283]	7.47
Cc1ncc(F)cc1-c1c(CN(C)C)cc2nc(C)n(CCOc3ccc(Cl)cc3-c3ccnc4c(C(=O)O)c(C)sc34)c(=O)c2c1C#N [compound 1284]	< 6.00
Cc1sc2c(-c3cc(Cl)ccc3OCCn3c(C)nc4cc(C(F)(F)F)c(N5CCN(C)CC5)c(C#N)c4c3=O)ccc(F)c2c1C(=O)O [compound 1286]	7.47
Cc1nc2cc(C(F)(F)F)c(CCN3CC(F)(F)C3)c(C#N)c2c(=O)n1CCOc1ccc(Cl)cc1-c1ccnc2c(C(=O)O)csc12 [compound 1287]	7.37
Cc1nc2cc(C(F)(F)F)c(CCN(C)CC(F)F)c(C#N)c2c(=O)n1CCOc1ccc(Cl)cc1-c1ccnc2c(C(=O)O)csc12 [compound 1288]	7.44
Cc1nc2cc(C(F)(F)F)c(N3CCN(CC(F)F)CC3)nc2c(=O)n1CC#Cc1ccc(Cl)cc1-c1ccnc2c(C(=O)O)csc12 [compound 1290]	6.83

SMILES	pIC50
Cc1nc2cc(C(F)(F)F)c(N3CCN(C4CC4)CC3)c(C#N)c2c(=O)n1CCOc1ccc(Cl)cc1-c1ccnc2c(C(=O)O)csc12 [compound 1291]	7.39
Cc1nc2cc(C(F)(F)F)c(N3CCN(C4CC(F)(F)C4)CC3)c(C#N)c2c(=O)n1CCOc1ccc(Cl)cc1-c1ccnc2c(C(=O)O)csc12 [compound 1292]	7.28
Cc1nc2cc(C(F)(F)F)c(N3CCN(CCC(F)(F)F)CC3)c(C#N)c2c(=O)n1CCOc1ccc(Cl)cc1-c1ccnc2c(C(=O)O)csc12 [compound 1293]	7.45
Cc1sc2c(-c3cc(Cl)ccc3OCCn3c(C)nc4cc(S(C)(=O)=O)c(N5CCN(C)CC5)c(C#N)c4c3=O)ccnc2c1C(=O)O [compound 1294]	7.25
Cc1cc(-c2cc(Cl)ccc2OCCn2c(C)nc3cc(S(C)(=O)=O)c(N4CCN(C)CC4)c(C#N)c3c2=O)c2scc(C(=O)O)c2n1 [compound 1295]	7.87
Cc1nc2cc(S(C)(=O)=O)c(N3CCN(C)CC3)c(C#N)c2c(=O)n1CCOc1ccc(Cl)cc1-c1ccnc2c(C(=O)O)csc12 [compound 1296]	7.57
Cc1sc2c(-c3cc(Cl)ccc3OCCn3c(C)nc4c(C)nc(N5CCN(C)CC5)c(C#N)c4c3=O)ccnc2c1C(=O)O [compound 1297]	7.42
Cc1nc2cc(C(F)(F)F)c(CCN(C)C)c(C#N)c2c(=O)n1CC#Cc1ccc(Cl)cc1-c1ccnc2c(C(=O)O)csc12 [compound 1298]	7.42
Cc1nc2cc(C(F)(F)F)c(N3CCN(C)CC3)cc2c(=O)n1CCOc1ccc(Cl)cc1-c1ccnc2c(C(=O)NS(C)(=O)=O)csc12 [compound 1299]	7.49
Cc1nc2cc(C(F)(F)F)c(N3CCN(C)CC3)nc2c(=O)n1CCOc1ccc(Cl)cc1-c1ccnc2c(C(=O)NS(C)(=O)=O)csc12 [compound 1300]	7.74
Cc1nc2cnc(N3CCN(C)C4CC43)c(C#N)c2c(=O)n1CCOc1ccc(Cl)cc1-c1ccnc2c(C(=O)O)csc12 (stereo not drawn) [compound 1301]	7.81
Cc1nc2cnc(N3CCN(CCF)CC3)c(C#N)c2c(=O)n1CCOc1ccc(Cl)cc1-c1ccnc2c(C(=O)O)csc12 [compound 1302]	7.51
Cc1nc2cnc(N3CCN(CC(F)F)CC3)c(C#N)c2c(=O)n1CCOc1ccc(Cl)cc1-c1ccnc2c(C(=O)O)csc12 [compound 1303]	7.44
Cc1nc2cnc(N3CCN(CC(F)(F)F)CC3)c(C#N)c2c(=O)n1CCOc1ccc(Cl)cc1-c1ccnc2c(C(=O)O)csc12 [compound 1304]	7.73
Cc1nc2cnc(N3CCN(C)C(C(F)F)C3)c(C#N)c2c(=O)n1CCOc1ccc(Cl)cc1-c1ccnc2c(C(=O)O)csc12 (stereo not drawn) [compound 1305]	7.58
Cc1nc2cnc(N3CCN(C4CC4)CC3)c(C#N)c2c(=O)n1CCOc1ccc(Cl)cc1-c1ccnc2c(C(=O)O)csc12 [compound 1306]	7.41
Cc1nc2cnc(N3CCN(C4CC(F)(F)C4)CC3)c(C#N)c2c(=O)n1CCOc1ccc(Cl)cc1-c1ccnc2c(C(=O)O)csc12 [compound 1307]	7.27
Cc1nc2cnc(N3CCN(CCC(F)(F)F)CC3)c(C#N)c2c(=O)n1CCOc1ccc(Cl)cc1-c1ccnc2c(C(=O)O)csc12 [compound 1308]	7.38
Cc1nc2cnc(N3CCN(C(C)(C)C(F)F)CC3)c(C#N)c2c(=O)n1CCOc1ccc(Cl)cc1-c1ccnc2c(C(=O)O)csc12 [compound 1309]	7.43

SMILES	pIC50
Cc1nc2cnc(N3CCN(C4(C(F)F)CC4)CC3)c(C#N)c2c(=O)n1CCOc1ccc(Cl)cc1-c1ccnc2c(C(=O)O)csc12 [compound 1310]	7.67
Cc1nc2cnc(N3CCN4CC(F)(F)CC4C3)c(C#N)c2c(=O)n1CCOc1ccc(Cl)cc1-c1ccnc2c(C(=O)O)csc12 (stereo not drawn) [compound 1311]	7.88
Cc1nc2cnc(N3CCN(C(C)C(F)F)CC3)c(C#N)c2c(=O)n1CCOc1ccc(Cl)cc1-c1ccnc2c(C(=O)O)csc12 (stereo not drawn) [compound 1312]	8.08
Cc1nc2cnc(N3CCN(C(C)(C)C)CC3)c(C#N)c2c(=O)n1CCOc1ccc(Cl)cc1-c1ccnc2c(C(=O)O)csc12 [compound 1313]	7.37
Cc1nc2cnc(N3CC4(C3)CN(C3CC3)C4)c(C#N)c2c(=O)n1CCOc1ccc(Cl)cc1-c1ccnc2c(C(=O)O)csc12 [compound 1314]	7.74
Cc1nc2cnc(N3CCN(C(C)C(F)(F)F)CC3)c(C#N)c2c(=O)n1CCOc1ccc(Cl)cc1-c1ccnc2c(C(=O)O)csc12 (stereo not drawn) [compound 1315]	7.88
Cc1nc2cnc(N3CCN(C(C)(C)C(F)(F)F)CC3)c(C#N)c2c(=O)n1CCOc1ccc(Cl)cc1-c1ccnc2c(C(=O)O)csc12 [compound 1316]	7.48
Cc1nc2cnc(N3CCN(CC(C)(C)F)CC3)c(C#N)c2c(=O)n1CCOc1ccc(Cl)cc1-c1ccnc2c(C(=O)O)csc12 [compound 1317]	7.47
Cc1nc2cnc(N(C)C3CCN(C4CC4)CC3)c(C#N)c2c(=O)n1CCOc1ccc(Cl)cc1-c1ccnc2c(C(=O)O)csc12 [compound 1319]	7.87
Cc1nc2cnc(N(C)C3CCN(C4COC4)CC3)c(C#N)c2c(=O)n1CCOc1ccc(Cl)cc1-c1ccnc2c(C(=O)O)csc12 [compound 1320]	7.56
Cc1nc2cnc(N3CCN(C4COC4)CC3)c(C#N)c2c(=O)n1CC#Cc1ccc(Cl)cc1-c1ccnc2c(C(=O)O)csc12 [compound 1321]	7.22
Cc1nc2cnc(N3CC4(C3)CN(C3COC3)C4)c(C#N)c2c(=O)n1CC#Cc1ccc(Cl)cc1-c1ccnc2c(C(=O)O)csc12 [compound 1322]	7.95
Cc1nc2cnc(N(C)C3CCN(C)C3)c(C#N)c2c(=O)n1CCOc1ccc(Cl)cc1-c1ccnc2c(C(=O)O)csc12 (stereo not drawn) [compound 1323]	7.14
Cc1nc2cnc(-c3ccc(CN(C)C)nc3)c(C#N)c2c(=O)n1CCOc1ccc(Cl)cc1-c1ccnc2c(C(=O)O)csc12 [compound 1325]	7.57
Cc1nc2cnc(C#CCN(C)CCF)c(C#N)c2c(=O)n1CCOc1ccc(Cl)cc1-c1ccnc2c(C(=O)O)csc12 [compound 1326]	7.89
Cc1nc2cnc(C#CCN(C)CC(F)(F)F)c(C#N)c2c(=O)n1CCOc1ccc(Cl)cc1-c1ccnc2c(C(=O)O)csc12 [compound 1327]	7.71
Cc1nc2cnc(/C=C/CN(C)CCF)c(C#N)c2c(=O)n1CCOc1ccc(Cl)cc1-c1ccnc2c(C(=O)O)csc12 [compound 1328]	7.61
Cc1nc2cnc(C#CC3(N(C)C)CC3)c(C#N)c2c(=O)n1CCOc1ccc(Cl)cc1-c1ccnc2c(C(=O)O)csc12 [compound 1329]	7.45
Cc1nc2cnc(C3CN(C)CCO3)c(C#N)c2c(=O)n1CCOc1ccc(Cl)cc1-c1ccnc2c(C(=O)O)csc12 (stereo not drawn) [compound 1330]	7.89
